Earlier results, collected in patent US20060036094A1 (priority 2004, published 2006).

System: phorbol myristate-induced inflammation

For zoanthamine, the “inhibitory activity toward phorbol myristate-induced inflammation” value is listed as “potent inhibitory activity”.
